Reference: article PMC5218480 (PLoS ONE, 2017)

Test system: MV-4-11 cells
Experiment: Gene expression microarray analysis (Affymetrix PrimeView) and GSEA
Assay type: cell-based, human
Set-up: RFU PODN (11730768_x_at) / Fold change /veh PODN (11730768_x_at) / RFU LINC00158 (11744669_a_at) / Fold change /veh LINC00158 (11744669_a_at) / RFU DUSP10 (11751237_a_at) / Fold change /veh DUSP10 (11751237_a_at) / RFU ID3 (11757404_x_at) / Fold change /veh ID3 (11757404_x_at) / RFU PLEKHG5 (11737974_s_at) / Fold change /veh PLEKHG5 (11737974_s_at) / RFU LRRC4B (11730491_at) / Fold change /veh LRRC4B (11730491_at) / RFU GIMAP4 (11747438_a_at) / Fold change /veh GIMAP4 (11747438_a_at) / RFU KRT8 (11758183_x_at) / Fold change /veh KRT8 (11758183_x_at) / RFU CNN1 (11734310_a_at) / Fold change /veh CNN1 (11734310_a_at) / RFU VPS37D (11726825_at) / Fold change /veh VPS37D (11726825_at) / RFU C10orf10 (11716522_x_at) / Fold change /veh C10orf10 (11716522_x_at) / RFU KIR2DL2 /// KIR2DL4 /// KIR2DL5A /// KIR2DL5B /// KIR2DS1 /// KIR2DS2 /// KIR2DS3 /// KIR2DS4 /// KIR3DL3 /// KIR3DL3 /// KIR3DS1 (11738374_at) / Fold change /veh KIR2DL2 /// KIR2DL4 /// KIR2DL5A /// KIR2DL5B /// KIR2DS1 /// KIR2DS2 /// KIR2DS3 /// KIR2DS4 /// KIR3DL3 /// KIR3DL3 /// KIR3DS1 (11738374_at) / RFU C1QL1 (11718748_at) / Fold change /veh C1QL1 (11718748_at) / RFU TMPRSS4 (11747572_a_at) / Fold change /veh TMPRSS4 (11747572_a_at) / RFU HAMP (11756126_x_at) / Fold change /veh HAMP (11756126_x_at) / RFU RNFT2 (11725882_a_at) / Fold change /veh RNFT2 (11725882_a_at) / RFU NR4A2 (11747474_a_at) / Fold change /veh NR4A2 (11747474_a_at) / RFU ABCC12 (11746883_a_at) / Fold change /veh ABCC12 (11746883_a_at) / RFU TMEM136 (11760407_x_at) / Fold change /veh TMEM136 (11760407_x_at) / RFU CLDN22 /// WWC2 (11732394_at) / Fold change /veh CLDN22 /// WWC2 (11732394_at) / RFU HLA-DPB1 (11760878_x_at) / Fold change /veh HLA-DPB1 (11760878_x_at) / RFU SPINT1 (11716480_a_at) / Fold change /veh SPINT1 (11716480_a_at) / RFU GAP43 (11754022_s_at) / Fold change /veh GAP43 (11754022_s_at) / RFU A4GNT (11735810_at) / Fold change /veh A4GNT (11735810_at) / RFU PRB3 (11715151_x_at) / Fold change /veh PRB3 (11715151_x_at) / RFU TUBB4B (11761932_at) / Fold change /veh TUBB4B (11761932_at) / RFU CAPN14 (11732068_a_at) / Fold change /veh CAPN14 (11732068_a_at) / RFU TMCC2 (11721928_a_at) / Fold change /veh TMCC2 (11721928_a_at) / RFU IRGQ (11745062_a_at) / Fold change /veh IRGQ (11745062_a_at) / RFU FAM174B (11720279_a_at) / Fold change /veh FAM174B (11720279_a_at) / RFU TMPRSS4 (11748680_a_at) / Fold change /veh TMPRSS4 (11748680_a_at) / RFU FAM212B (11763350_a_at) / Fold change /veh FAM212B (11763350_a_at) / RFU PLEKHG5 (11743358_a_at) / Fold change /veh PLEKHG5 (11743358_a_at) / RFU ZSCAN30 (11745921_a_at) / Fold change /veh ZSCAN30 (11745921_a_at) / RFU CMKLR1 (11741424_a_at) / Fold change /veh CMKLR1 (11741424_a_at) / RFU LOC101060620 /// MAPK8IP1 (11723275_at) / Fold change /veh LOC101060620 /// MAPK8IP1 (11723275_at) / RFU SPTSSB (11747773_x_at) / Fold change /veh SPTSSB (11747773_x_at) / RFU PRSS12 (11739890_at) / Fold change /veh PRSS12 (11739890_at) / RFU BIN1 (11741810_x_at) / Fold change /veh BIN1 (11741810_x_at) / RFU WNT11 (11732464_a_at) / Fold change /veh WNT11 (11732464_a_at) / RFU C10orf10 (11716521_a_at) / Fold change /veh C10orf10 (11716521_a_at) / RFU C5orf56 (11738089_at) / Fold change /veh C5orf56 (11738089_at) / RFU CYB561 (11721691_x_at) / Fold change /veh CYB561 (11721691_x_at) / RFU ANKRD19P (11752326_a_at) / Fold change /veh ANKRD19P (11752326_a_at) / RFU OR2T12 /// OR2T33 /// OR2T8 (11738714_s_at) / Fold change /veh OR2T12 /// OR2T33 /// OR2T8 (11738714_s_at) / RFU VCAN (11748164_a_at) / Fold change /veh VCAN (11748164_a_at) / RFU JSRP1 (11732532_at) / Fold change /veh JSRP1 (11732532_at) / RFU KRTAP10-11 (11738290_x_at) / Fold change /veh KRTAP10-11 (11738290_x_at) / RFU MYO3A (11730013_a_at) / Fold change /veh MYO3A (11730013_a_at) / RFU EBF3 (11725865_a_at) / Fold change /veh EBF3 (11725865_a_at) / RFU CAMK2N1 (11719241_x_at) / Fold change /veh CAMK2N1 (11719241_x_at) / RFU C5orf56 (11738088_a_at) / Fold change /veh C5orf56 (11738088_a_at) / RFU OLFML3 (11715873_a_at) / Fold change /veh OLFML3 (11715873_a_at) / RFU LOC100653217 /// NTM (11731650_a_at) / Fold change /veh LOC100653217 /// NTM (11731650_a_at) / RFU MAPK11 (11762145_a_at) / Fold change /veh MAPK11 (11762145_a_at) / RFU FIZ1 (11724087_x_at) / Fold change /veh FIZ1 (11724087_x_at) / RFU OASL (11726364_x_at) / Fold change /veh OASL (11726364_x_at) / RFU SOX15 (11748057_x_at) / Fold change /veh SOX15 (11748057_x_at) / RFU CD79A (11719716_a_at) / Fold change /veh CD79A (11719716_a_at) / RFU HIST1H1D (11736915_at) / Fold change /veh HIST1H1D (11736915_at) / RFU CASKIN2 (11723855_a_at) / Fold change /veh CASKIN2 (11723855_a_at) / RFU LOC730098 (11760151_x_at) / Fold change /veh LOC730098 (11760151_x_at) / RFU OR4N2 (11742367_at) / Fold change /veh OR4N2 (11742367_at) / RFU PRRT2 (11749266_a_at) / Fold change /veh PRRT2 (11749266_a_at) / RFU SNX32 (11753110_a_at) / Fold change /veh SNX32 (11753110_a_at) / RFU CDHR5 (11726645_a_at) / Fold change /veh CDHR5 (11726645_a_at) / RFU RCAN1 (11760418_a_at) / Fold change /veh RCAN1 (11760418_a_at) / RFU FAM167A (11723789_a_at) / Fold change /veh FAM167A (11723789_a_at) / RFU FAM26E (11764081_at) / Fold change /veh FAM26E (11764081_at) / RFU ISYNA1 (11749810_s_at) / Fold change /veh ISYNA1 (11749810_s_at) / RFU ACY1 (11761880_at) / Fold change /veh ACY1 (11761880_at) / RFU 11764098_at / Fold change /veh 11764098_at / RFU SAMD14 (11745864_x_at) / Fold change /veh SAMD14 (11745864_x_at) / RFU NPB (11741838_a_at) / Fold change /veh NPB (11741838_a_at) / RFU TMPRSS6 (11731388_a_at) / Fold change /veh TMPRSS6 (11731388_a_at) / RFU KRTAP10-2 (11738614_at) / Fold change /veh KRTAP10-2 (11738614_at) / RFU ARHGAP8 /// PRR5-ARHGAP8 (11727945_x_at) / Fold change /veh ARHGAP8 /// PRR5-ARHGAP8 (11727945_x_at) / RFU KRTAP5-7 /// NADSYN1 (11734609_at) / Fold change /veh KRTAP5-7 /// NADSYN1 (11734609_at) / RFU RASL12 (11751679_a_at) / Fold change /veh RASL12 (11751679_a_at) / RFU CDKN2B (11736163_a_at) / Fold change /veh CDKN2B (11736163_a_at) / RFU PRF1 (11729649_at) / Fold change /veh PRF1 (11729649_at) / RFU, ZNF638 /// ZNF638-IT1 / Fold change vs veh, ZNF638 /// ZNF638-IT1 / RFU, PANK3 / Fold change vs veh, PANK3 / RFU, SH3YL1 / Fold change vs veh, SH3YL1 / RFU, ZEB2 / Fold change vs veh, ZEB2 / RFU, NRIP1 / Fold change vs veh, NRIP1 / RFU, PTTG1IP / Fold change vs veh, PTTG1IP / RFU, CAPN2 / Fold change vs veh, CAPN2 / RFU, MED14 / Fold change vs veh, MED14 / RFU, SNORA58 / Fold change vs veh, SNORA58 / RFU, C1orf63 / Fold change vs veh, C1orf63 / RFU, LRRFIP1 / Fold change vs veh, LRRFIP1 / RFU, NDUFAF7 / Fold change vs veh, NDUFAF7 / RFU, SLC12A2 / Fold change vs veh, SLC12A2 / RFU, IBTK / Fold change vs veh, IBTK / RFU, ESF1 / Fold change vs veh, ESF1 / Fold change vs veh, TMEM50B / RFU, TAOK1 / Fold change vs veh, TAOK1 / RFU, ACBD3 / Fold change vs veh, ACBD3 / RFU, TMA16 / Fold change vs veh, TMA16 / RFU, RWDD3 / Fold change vs veh, RWDD3 / RFU, BCAT1 / Fold change vs veh, BCAT1 / RFU, EDEM3 / Fold change vs veh, EDEM3 / RFU, TMEM33 / Fold change vs veh, TMEM33 / RFU, WDR75 / Fold change vs veh, WDR75 / RFU, AHCTF1 / Fold change vs veh, AHCTF1 / RFU, TFRC / Fold change vs veh, TFRC / RFU, ZDHHC17 / Fold change vs veh, ZDHHC17 / RFU, NOM1 / Fold change vs veh, NOM1 / RFU, ARL8B / Fold change vs veh, ARL8B / RFU, ZBTB11 / Fold change vs veh, ZBTB11 / RFU, TAMM41 / Fold change vs veh, TAMM41 / RFU, KIAA1704 /// LOC100996395 / Fold change vs veh, KIAA1704 /// LOC100996395 / RFU, ING1 / Fold change vs veh, ING1 / RFU, TRMT61B / Fold change vs veh, TRMT61B / RFU, FUBP3 / Fold change vs veh, FUBP3 / RFU, TP53 / Fold change vs veh, TP53 / RFU, TNKS2 / Fold change vs veh, TNKS2 / RFU, ZFP14 / Fold change vs veh, ZFP14 / RFU, ACTR2 / Fold change vs veh, ACTR2 / RFU, PPP3R1 / Fold change vs veh, PPP3R1 / RFU, PIK3R1 / Fold change vs veh, PIK3R1 / RFU, HNRNPA1 / Fold change vs veh, HNRNPA1 / RFU, RNF170 / Fold change vs veh, RNF170 / RFU, ZNF28 / Fold change vs veh, ZNF28 / RFU, RNGTT / Fold change vs veh, RNGTT / RFU, OGT / Fold change vs veh, OGT / RFU, BRD1 / Fold change vs veh, BRD1 / RFU, MARS / Fold change vs veh, MARS / RFU, ZNF655 / Fold change vs veh, ZNF655 / RFU, FAHD1 / Fold change vs veh, FAHD1 / RFU, BDP1 / Fold change vs veh, BDP1 / RFU, LRRCC1 / Fold change vs veh, LRRCC1 / RFU, ARID1A / Fold change vs veh, ARID1A / RFU, ZNF146 / Fold change vs veh, ZNF146 / RFU, ZNF330 / Fold change vs veh, ZNF330 / RFU, GPN3 / Fold change vs veh, GPN3 / RFU, C9orf123 / Fold change vs veh, C9orf123 / RFU, N4BP2L2 / Fold change vs veh, N4BP2L2 / RFU, ARFIP1 / Fold change vs veh, ARFIP1 / RFU, FAM179B / Fold change vs veh, FAM179B / RFU, BCL10 / Fold change vs veh, BCL10 / RFU, UHRF1BP1L / Fold change vs veh, UHRF1BP1L / RFU, BET1 / Fold change vs veh, BET1 / RFU, CNOT2 / Fold change vs veh, CNOT2 / RFU, ZNF268 / Fold change vs veh, ZNF268 / Fold change vs veh, ZNF507 / RFU, DGCR2 / Fold change vs veh, DGCR2 / RFU, WDSUB1 / Fold change vs veh, WDSUB1 / Fold change vs veh, HSP90B1 /// MIR3652 / RFU, ADSS / Fold change vs veh, ADSS / RFU, GK / Fold change vs veh, GK / RFU, ZNF148 / Fold change vs veh, ZNF148 / RFU, TAF9 / Fold change vs veh, TAF9 / RFU, SLC1A5 / Fold change vs veh, SLC1A5 / RFU, SLMO2 / Fold change vs veh, SLMO2 / RFU, ABCC4 / Fold change vs veh, ABCC4 / RFU, LOC101060439 /// RAP1B / Fold change vs veh, LOC101060439 /// RAP1B / RFU, RFX7 / Fold change vs veh, RFX7 / RFU, GTPBP10 / Fold change vs veh, GTPBP10 / RFU, CNEP1R1 / Fold change vs veh, CNEP1R1 / RFU, BIVM-ERCC5 /// ERCC5 / Fold change vs veh, BIVM-ERCC5 /// ERCC5 / RFU, ILF3 / Fold change vs veh, ILF3 / RFU 11762660_at / Fold change /veh 11762660_at / RFU VCAN (11757783_s_at) / Fold change /veh VCAN (11757783_s_at) / RFU DDX43 (11728927_at) / Fold change /veh DDX43 (11728927_at) / RFU KRT8 (11758188_x_at) / Fold change /veh KRT8 (11758188_x_at) / RFU NKD1 (11759106_at) / Fold change /veh NKD1 (11759106_at) / RFU SRD5A1 (11742802_a_at) / Fold change /veh SRD5A1 (11742802_a_at) / RFU TPSAB1 /// TPSB2 (11721975_s_at) / Fold change /veh TPSAB1 /// TPSB2 (11721975_s_at) / RFU GSTM3 (11746129_a_at) / Fold change /veh GSTM3 (11746129_a_at) / RFU IL23R (11737362_x_at) / Fold change /veh IL23R (11737362_x_at) / RFU TMEM51 (11727254_a_at) / Fold change /veh TMEM51 (11727254_a_at) / RFU PIWIL2 (11732686_x_at) / Fold change /veh PIWIL2 (11732686_x_at) / RFU ORM1 (11744905_x_at) / Fold change /veh ORM1 (11744905_x_at) / RFU CCDC152 (11743942_at) / Fold change /veh CCDC152 (11743942_at) / RFU ECM1 (11717891_a_at) / Fold change /veh ECM1 (11717891_a_at) / RFU IL23R (11748794_a_at) / Fold change /veh IL23R (11748794_a_at) / RFU TNFAIP8L3 (11732012_x_at) / Fold change /veh TNFAIP8L3 (11732012_x_at) / RFU MBOAT4 (11741988_at) / Fold change /veh MBOAT4 (11741988_at) / RFU 11764193_at / Fold change /veh 11764193_at / RFU TMEM53 (11763286_at) / Fold change /veh TMEM53 (11763286_at) / RFU MAGEB2 (11727129_at) / Fold change /veh MAGEB2 (11727129_at) / RFU TMEM200A (11744735_a_at) / Fold change /veh TMEM200A (11744735_a_at) / RFU CCDC152 (11751479_a_at) / Fold change /veh CCDC152 (11751479_a_at) / RFU FAM211A (11726209_a_at) / Fold change /veh FAM211A (11726209_a_at) / RFU RGS16 (11746705_a_at) / Fold change /veh RGS16 (11746705_a_at) / RFU VCAN (11755009_s_at) / Fold change /veh VCAN (11755009_s_at) / RFU RHOB (11743442_s_at) / Fold change /veh RHOB (11743442_s_at) / RFU RGS16 (11720943_a_at) / Fold change /veh RGS16 (11720943_a_at) / RFU RGS16 (11720944_at) / Fold change /veh RGS16 (11720944_at) / RFU, VPS4B / Fold change vs veh, VPS4B / RFU, CREB1 / Fold change vs veh, CREB1 / RFU, DNAJC13 / Fold change vs veh, DNAJC13 / RFU, GNAQ / Fold change vs veh, GNAQ / RFU, CDK5R1 / Fold change vs veh, CDK5R1 / RFU, ZRANB3 / Fold change vs veh, ZRANB3 / RFU, CUL4A / Fold change vs veh, CUL4A / RFU, CCNY / Fold change vs veh, CCNY / RFU, UFL1 / Fold change vs veh, UFL1 / RFU, COG3 / Fold change vs veh, COG3 / RFU, DIAPH2 / Fold change vs veh, DIAPH2 / RFU, SKA2 / Fold change vs veh, SKA2 / RFU, AFF3 / Fold change vs veh, AFF3 / RFU, LMF1 / Fold change vs veh, LMF1 / RFU, IPO11 / Fold change vs veh, IPO11 / RFU, DFFB / Fold change vs veh, DFFB / RFU, FOXP1 / Fold change vs veh, FOXP1 / RFU, CARD8 / Fold change vs veh, CARD8 / RFU, STRN3 / Fold change vs veh, STRN3 / RFU, ADK / Fold change vs veh, ADK / RFU, RASSF2 / Fold change vs veh, RASSF2 / RFU, WIPF1 / Fold change vs veh, WIPF1 / RFU, LARP1B / Fold change vs veh, LARP1B / RFU, RASA1 / Fold change vs veh, RASA1 / RFU, RB1 / Fold change vs veh, RB1 / RFU, PPFIA1 / Fold change vs veh, PPFIA1 / RFU, MAT2A / Fold change vs veh, MAT2A / RFU, CCT5 / Fold change vs veh, CCT5 / RFU, WDR92 / Fold change vs veh, WDR92 / RFU, CUX1 / Fold change vs veh, CUX1 / RFU, TTC7A / Fold change vs veh, TTC7A / RFU, TMEM135 / Fold change vs veh, TMEM135 / RFU, DEPTOR / Fold change vs veh, DEPTOR / RFU, CPM / Fold change vs veh, CPM / RFU, DNAJB6 / Fold change vs veh, DNAJB6 / RFU, CACNA2D3 / Fold change vs veh, CACNA2D3 / RFU, DTX4 / Fold change vs veh, DTX4 / RFU, TFCP2 / Fold change vs veh, TFCP2 / RFU, GMCL1 /// GMCL1P1 / Fold change vs veh, GMCL1 /// GMCL1P1 / RFU, AEBP2 / Fold change vs veh, AEBP2 / RFU, SNHG1 /// SNORD22 /// SNORD25 /// SNORD26 /// SNORD27 /// SNORD28 /// SNORD29 /// SNORD31 / Fold change vs veh, SNHG1 /// SNORD22 /// SNORD25 /// SNORD26 /// SNORD27 /// SNORD28 /// SNORD29 /// SNORD31 / Fold change (Aza/veh), C12orf56 (ProbeSet 11735607_a_at) / Fold change (ACY-1035/veh), C12orf56 (ProbeSet 11735607_a_at) / Fold change (Aza/veh), FGFR1OP (ProbeSet 11751329_s_at) / Fold change (ACY-1035/veh), FGFR1OP (ProbeSet 11751329_s_at) / Fold change (Aza/veh), VPS36 (ProbeSet 11739960_a_at) / Fold change (ACY-1035/veh), VPS36 (ProbeSet 11739960_a_at) / RFU SYPL1 (11715823_x_at) / Fold change /veh SYPL1 (11715823_x_at) / RFU IGFBP7 (11715501_s_at) / Fold change /veh IGFBP7 (11715501_s_at) / RFU REEP3 (11722064_at) / Fold change /veh REEP3 (11722064_at) / RFU IGLL1 (11728026_x_at) / Fold change /veh IGLL1 (11728026_x_at): dose or concentration left out as unconfirmed
Details: ProbeSet 11755425_a_at; LIST B

## Nc1ccc(-c2cccs2)cc1NC(=O)c1ccc2c(c1)cc(C1CC1)n2CCN1CCOCC1 [ACY-1035]
  RFU, FAM179B: 77.88 RFU
